Experiment [1] deals with PS1 and PS2 NTF and CTF. Description: Photoaffinity labeling with RO6874585 and competition, HEK293 membrane fractions. Type of experiment: binding, human. The following applies: for Competition of RO6874585 crosslinking to presenilin: 100x excess of competitor. As for the experimental part: (§1) Membrane fractions of HEK293 or MEF cells were incubated with RO6874585 in the presence or absence of other GSMs used as competitor compounds as described previously. In brief, after photoactivation, samples were solubilised using SDS-containing buffer and the crosslinked proteins were pulled down with streptavidin-sepharose. Thereafter, samples were analysed by immunoblotting.

The target of experiment [2] is γ-secretase (Aβ42) in H4/sw cell line (Homo sapiens, UniProt P49768+P49810). Description: Aβ42 AlphaLISA dose–response in H4/sw cells.
Experimental: (§2) After three days of incubation, the medium was harvested, centrifuged and the supernatant was used for Aβ measurements by immunoassays.
(§3) To analyse GSM dose-responses and determine IC50 values for Aβ42 inhibition, secreted Aβ species of HEK293/sw cells were analysed by sandwich immunoassay (MSD) using SULFO-tagged C-terminal specific antibodies to Aβ37, Aβ38, Aβ40 and Aβ42 as described [25] or, in case of H4/sw cells by an Aβ42 AlphaLISA immunoassay kit according to the instructions of the supplier (PerkinElmer) as described [38]. Notch1 cleavage reporter assay was performed as described [38].
(§4) (A) The Aβ42-lowering effects of the GSMs used in this study were additionally characterised in dose-response curves on the H4/sw cell line, measuring Aβ42 levels after over-night incubations with an Aβ42-AlphaLisa. Effects of compounds on Notch1 processing were recorded using a Notch1 reporter assay. […] Means ± SEM of 4–7 independent experiments with 2 technical replicates each are shown. (B) IC50 values for Aβ42 calculated from the experiments in (A).
In experiment [3] the target is T1, endogenous γ-secretase in HEK293/sw cells (Homo sapiens, UniProt P49768+P49810). Description: Aβ dose–response in HEK293/sw cells, MSD sandwich immunoassay.
Experimental: (§5) Possible effects of compound treatment to cell viability were recorded using the CytoTox-Glo cell viability assay (Promega) following the instructions of the manufacturer. […] After three days of incubation, the medium was harvested, centrifuged and the supernatant was used for Aβ measurements by immunoassays.
(§6) To analyse GSM dose-responses and determine IC50 values for Aβ42 inhibition, secreted Aβ species of HEK293/sw cells were analysed by sandwich immunoassay (MSD) using SULFO-tagged C-terminal specific antibodies to Aβ37, Aβ38, Aβ40 and Aβ42 as described [25] or, in case of H4/sw cells by an Aβ42 AlphaLISA immunoassay kit according to the instructions of the supplier (PerkinElmer) as described [38]. […] GSM effects on secreted Aβ species in conditioned medium of MEF KI cells or iPSC-derived neurons were either quantified by ELISA using end-specific C-terminal antibodies to Aβ38, Aβ40, Aβ42 and Aβ43 obtained from IBL [16, 53] or MSD sandwich-immunoassay (Aβ37, see above). Total Aβ in conditioned medium of iPSC-derived neurons were measured using MSD sandwich-immunoassay using anti-Aβ antibodies 2D8 (biotinylated, capture) and 4G8 (detection) as described previously [54].
For experiment [4], the target named is T2, γ-secretase in WT (WT/WT) MEF cells (Mus musculus, UniProt P49769+Q61144). The experiment can be described thus: Aβ species by Tris-Bicine urea SDS-PAGE/immunoblot, WT/WT MEF cells. The following applies: RO-02 and RO7019009 500 nM, BPN-15606 360 nM; for Aβ40 (gel): WT MEF (genotype not given), RO5254601 2.5 µM; for Short species Aβ37 and Aβ38 (gel): WT MEF.

Experiment [5] concerns the target γ-secretase in WT iPSC-derived cortical neurons (Homo sapiens, UniProt P49768+P49810). The experiment can be described thus: Secreted Aβ species by immunoassays, WT iPSC-derived cortical neurons. The following applies: 3 days, RO7019009 500 nM or 2.5 µM, RO5254601 2.5 µM.
Experimental: The media was exchanged (NM/DOX) for the next two days. […] On day 6 and 9 cells were fed with NM/DOX complemented with 300 ng/ml puromycin dihydrochloride (puro, VWR, Cat. No. J593). Afterwards, the medium was switched to NM supplemented with 5 μM 5-fluorouracil (5FU, Sigma, Cat. No. F6627) with half feeds to remove the remaining dividing stem and neuron precursor cells. From day 13, cells were grown in NB (Neurobasal, penicillin–streptomycin) with B27 Plus (Thermo Fisher, Cat. No. A3582801) and 5FU. 5FU was removed in the following feeds. The cells were grown until day 24 before treatment started and analysed at day 27.
(§7) Possible effects of compound treatment to cell viability were recorded using the CytoTox-Glo cell viability assay (Promega) following the instructions of the manufacturer. […]
Immunoblot analysis of secreted Aβ was performed as described [52]. […] GSM effects on secreted Aβ species in conditioned medium of MEF KI cells or iPSC-derived neurons were either quantified by ELISA using end-specific C-terminal antibodies to Aβ38, Aβ40, Aβ42 and Aβ43 obtained from IBL [16, 53] or MSD sandwich-immunoassay (Aβ37, see above). Total Aβ in conditioned medium of iPSC-derived neurons were measured using MSD sandwich-immunoassay using anti-Aβ antibodies 2D8 (biotinylated, capture) and 4G8 (detection) as described previously [54]. […]
Experiment [6] relates to iPSC-derived cortical neurons (total Aβ). Description: Total Aβ by MSD sandwich immunoassay (2D8/4G8) in iPSC-derived neurons. The following applies: WT, heterozygous and homozygous neurons, 3 days; RO7019009 500 nM or 2.5 µM, RO5254601 2.5 µM.
Experimental: as §5, §6
Experiment [7] relates to γ-secretase in heterozygous (WT/L166P) PS1 L166P KI MEF cells. The experiment can be described thus: Secreted Aβ species by ELISA (IBL), heterozygous PS1 L166P KI MEF cells. The following applies: for Combined pathogenic species (Aβ42 + Aβ43) / Secreted Aβ43: 24 h, RO7019009 500 nM, RO5254601 2.5 µM; for Aβ38 level in treated cells, % of total Aβ: GSM-1 2.5 µM, RO-02 500 nM, one range given for both compounds and both 'other genotypes'.
Text: Immortalised embryonic fibroblast cells from mice expressing human APP and either hetero- or homozygously knocked-in PS1 L166P [36] were generated as follows. For the production of mouse embryonic fibroblasts (MEF), all mice interbred were homozygous APP YAC transgenic mice. Primary MEFs were isolated from 14 days (E14) post-conception mouse embryos from the crossing of APP YAC × PSEN1 L166P (-/-) with APP YAC × PSEN1 L166P (-/-) mice to establish WT/WT MEF lines as well as APP YAC × PSEN1 L166P ( +/-) with APP YAC × PSEN1 L166P (+ / +) mice to establish WT/L166P and L166P/L166P MEF lines. […] The tissue was then triturated 5 times with a 1 ml pipet. Trypsin was inactivated by adding 25 ml of medium (DMEM with 25 mM glucose, 10% FBS, 100 U/ml penicillin, 100 μg/ml streptomycin, 0.25 μg/ml amphotericin B, 6 mM glutamine and 1.5 mM pyruvate). The cell suspension was passed through a cell strainer and centrifuged for 15 min at 200 g. The cell pellet was resuspended in fresh media and plated. After 24 h, media was changed again to eliminate dead cells and debris. To obtain immortalised MEF lines, primary cells at passage 2–3 were transfected (FuGENE6, Promega) with a plasmid containing the SV40 T antigen cDNA. Immortalised cells were selected from individual colonies and maintained in media containing 500 μg/ml of geneticin (G418). Cells were kept at 37 °C with 5% CO2 in a humidified incubator. MEFs from passage 10 + were used for all the experiments and cultured in DMEM supplemented with 10% FCS and G418 (200 µg/ml). […] H4 cells overexpressing APPsw (H4/sw) and HEK293-based Notch1 reporter cell lines were cultured as described [38].
as §5
Immunoblot analysis of secreted Aβ was performed as described [52]. To analyse GSM dose-responses and determine IC50 values for Aβ42 inhibition, secreted Aβ species of HEK293/sw cells were analysed by sandwich immunoassay (MSD) using SULFO-tagged C-terminal specific antibodies to Aβ37, Aβ38, Aβ40 and Aβ42 as described [25] or, in case of H4/sw cells by an Aβ42 AlphaLISA immunoassay kit according to the instructions of the supplier (PerkinElmer) as described [38]. Notch1 cleavage reporter assay was performed as described [38]. GSM effects on secreted Aβ species in conditioned medium of MEF KI cells or iPSC-derived neurons were either quantified by ELISA using end-specific C-terminal antibodies to Aβ38, Aβ40, Aβ42 and Aβ43 obtained from IBL [16, 53] or MSD sandwich-immunoassay (Aβ37, see above). Total Aβ in conditioned medium of iPSC-derived neurons were measured using MSD sandwich-immunoassay using anti-Aβ antibodies 2D8 (biotinylated, capture) and 4G8 (detection) as described previously [54]. […] Protein bands from immunoblots were quantified using the LAS-4000 image reader (Fujifilm Life Science) and Multi-Gauge V3.0 software for analysis.

In experiment [8] the test system is Notch1 cleavage. Description: Notch1 cleavage reporter assay (NICD release), HEK293-based reporter cell line. The following applies: dose–response.
Experimental: as §2, §3, §4
Experiment [9] has as its target γ-secretase in homozygous L166P/L166P iPSC-derived cortical neurons (Homo sapiens, UniProt P49768+P49810, L166P). Description: Secreted Aβ species by immunoassays, homozygous PS1 L166P KI iPSC-derived neurons. The following applies: 3 days.
Experimental: as §5
(§8) Immunoblot analysis of secreted Aβ was performed as described [52]. To analyse GSM dose-responses and determine IC50 values for Aβ42 inhibition, secreted Aβ species of HEK293/sw cells were analysed by sandwich immunoassay (MSD) using SULFO-tagged C-terminal specific antibodies to Aβ37, Aβ38, Aβ40 and Aβ42 as described [25] or, in case of H4/sw cells by an Aβ42 AlphaLISA immunoassay kit according to the instructions of the supplier (PerkinElmer) as described [38].
Experiment [10] has as its system γ-secretase in heterozygous WT/L166P iPSC-derived cortical neurons. The experiment can be described thus: Secreted Aβ species by immunoassays, heterozygous PS1 L166P KI iPSC-derived neurons. The following applies: 3 days, RO7019009 500 nM or 2.5 µM, RO5254601 2.5 µM.
Experimental: as §5, §8
The target in experiment [11] is T3, γ-secretase in homozygous (L166P/L166P) PS1 L166P KI MEF cells (Mus musculus, UniProt P49769+Q61144, L166P). The experiment can be described thus: Aβ species by Tris-Bicine urea SDS-PAGE/immunoblot, homozygous PS1 L166P KI MEF cells.
Experimental: as §5, §6
The test system of experiment [12] is γ-secretase in heterozygous (WT/L166P) PS1 L166P KI MEF cells. Description: Aβ species by Tris-Bicine urea SDS-PAGE/immunoblot, heterozygous PS1 L166P KI MEF cells. The following applies: for Aβ40 (gel): heterozygous KI MEF (genotype not given), RO5254601 2.5 µM; for Aβ40 (gel) / Short species Aβ37 and Aβ38 (gel): RO-02 and RO7019009 500 nM, BPN-15606 360 nM.
Experiment [13] deals with brain-derived cell lines. The arrangement: method as in PMID 31762188. The following applies: read-out: IC50 (Aβ42); cited from earlier work.
In experiment [14] the target is T2, γ-secretase in WT (WT/WT) MEF cells. The experiment can be described thus: Secreted Aβ species by ELISA (IBL), WT/WT MEF cells. The following applies: for Secreted Aβ38: RO7019009 500 nM.
Text: Immortalised embryonic fibroblast cells from mice expressing human APP and either hetero- or homozygously knocked-in PS1 L166P [36] were generated as follows. For the production of mouse embryonic fibroblasts (MEF), all mice interbred were homozygous APP YAC transgenic mice. Primary MEFs were isolated from 14 days (E14) post-conception mouse embryos from the crossing of APP YAC × PSEN1 L166P (-/-) with APP YAC × PSEN1 L166P (-/-) mice to establish WT/WT MEF lines as well as APP YAC × PSEN1 L166P ( +/-) with APP YAC × PSEN1 L166P (+ / +) mice to establish WT/L166P and L166P/L166P MEF lines. […] The tissue was then triturated 5 times with a 1 ml pipet. Trypsin was inactivated by adding 25 ml of medium (DMEM with 25 mM glucose, 10% FBS, 100 U/ml penicillin, 100 μg/ml streptomycin, 0.25 μg/ml amphotericin B, 6 mM glutamine and 1.5 mM pyruvate). The cell suspension was passed through a cell strainer and centrifuged for 15 min at 200 g. The cell pellet was resuspended in fresh media and plated. After 24 h, media was changed again to eliminate dead cells and debris. To obtain immortalised MEF lines, primary cells at passage 2–3 were transfected (FuGENE6, Promega) with a plasmid containing the SV40 T antigen cDNA. Immortalised cells were selected from individual colonies and maintained in media containing 500 μg/ml of geneticin (G418). Cells were kept at 37 °C with 5% CO2 in a humidified incubator. MEFs from passage 10 + were used for all the experiments and cultured in DMEM supplemented with 10% FCS and G418 (200 µg/ml). […]
as §7
Immunoblot analysis of secreted Aβ was performed as described [52]. To analyse GSM dose-responses and determine IC50 values for Aβ42 inhibition, secreted Aβ species of HEK293/sw cells were analysed by sandwich immunoassay (MSD) using SULFO-tagged C-terminal specific antibodies to Aβ37, Aβ38, Aβ40 and Aβ42 as described [25] or, in case of H4/sw cells by an Aβ42 AlphaLISA immunoassay kit according to the instructions of the supplier (PerkinElmer) as described [38]. […] GSM effects on secreted Aβ species in conditioned medium of MEF KI cells or iPSC-derived neurons were either quantified by ELISA using end-specific C-terminal antibodies to Aβ38, Aβ40, Aβ42 and Aβ43 obtained from IBL [16, 53] or MSD sandwich-immunoassay (Aβ37, see above). Total Aβ in conditioned medium of iPSC-derived neurons were measured using MSD sandwich-immunoassay using anti-Aβ antibodies 2D8 (biotinylated, capture) and 4G8 (detection) as described previously [54]. […] Protein bands from immunoblots were quantified using the LAS-4000 image reader (Fujifilm Life Science) and Multi-Gauge V3.0 software for analysis.
The target in experiment [15] is T1, endogenous γ-secretase in HEK293/sw cells. More on the design: endogenous γ-secretase in HEK293/sw cells; endogenous in cells; host or cells: HEK293/sw (HEK293 stably expressing APPsw). The following applies: read-out: IC50 (Aβ42); cited from earlier work.
Experiment [16] deals with T3, γ-secretase in homozygous (L166P/L166P) PS1 L166P KI MEF cells. The experiment can be described thus: Secreted Aβ species by ELISA (IBL), homozygous PS1 L166P KI MEF cells. The following applies: GSM-1 2.5 µM, RO-02 500 nM, one range printed for both compounds, measurable in half of the samples.
Text: Immortalised embryonic fibroblast cells from mice expressing human APP and either hetero- or homozygously knocked-in PS1 L166P [36] were generated as follows. For the production of mouse embryonic fibroblasts (MEF), all mice interbred were homozygous APP YAC transgenic mice. Primary MEFs were isolated from 14 days (E14) post-conception mouse embryos from the crossing of APP YAC × PSEN1 L166P (-/-) with APP YAC × PSEN1 L166P (-/-) mice to establish WT/WT MEF lines as well as APP YAC × PSEN1 L166P ( +/-) with APP YAC × PSEN1 L166P (+ / +) mice to establish WT/L166P and L166P/L166P MEF lines. […] The tissue was then triturated 5 times with a 1 ml pipet. […]
as §7
Immunoblot analysis of secreted Aβ was performed as described [52]. To analyse GSM dose-responses and determine IC50 values for Aβ42 inhibition, secreted Aβ species of HEK293/sw cells were analysed by sandwich immunoassay (MSD) using SULFO-tagged C-terminal specific antibodies to Aβ37, Aβ38, Aβ40 and Aβ42 as described [25] or, in case of H4/sw cells by an Aβ42 AlphaLISA immunoassay kit according to the instructions of the supplier (PerkinElmer) as described [38]. […]
For experiment [17], the target named is T4, PS1 L166P (Mus musculus, UniProt P49769, L166P).
T4 construct: crosslinking efficiencies of PS1 NTF and PS1 CTF in WT or PS1 L166P KI MEF cell membranes; endogenous in cells; host or cells: membrane fractions of PS1 L166P knock-in MEF cells
The experiment can be described thus: Photoaffinity labeling with RO6874585, WT or PS1 L166P KI MEF membrane fractions. Type of experiment: binding. The procedure: as §1

Setting [18] is: read-out: Aβ42 IC50 [nM ± SD], H4/sw cells, over-night incubation, Aβ42-AlphaLisa, 4–7 independent experiments.

The source of these data is PMC11837686, “γ-Secretase modulator resistance of an aggressive Alzheimer-causing presenilin mutant can be overcome in the heterozygous patient state by a set of advanced compounds” (Alzheimer's Research & Therapy, 2025).

Several values for one entry are separate records, joined by “and”; a condition that tells them apart may be missing. Identical values can stand only once. Entries after “also recorded” stand apart in the source; their conditions may differ. Like-named read-outs stand apart in the source and are kept apart here.

In the case of `CC(C)N1CCCC(c2ccc3[nH]c(C(=O)Nc4cccc(F)c4)cc3c2)C1` (stereo not drawn) [RO5218165], the “Competition of RO6874585 crosslinking to presenilin” value (shortened to “Competition”) in [1] is “differential competition for NTF and CTF binding”. Moreover, in experiment [2] (setting [18]), the 50% inhibitory concentration (IC50) came out at 207 ± 32.4 nM.

In the case of `CC(C)N1CCC(Oc2ccc3[nH]c(C(=O)Nc4ccc(F)c(F)c4)cc3c2)C1` (stereo not drawn) [RO5218863], the “Competition” value in experiment [1] was “competed with presenilin binding”. For the same compound, the IC50 in experiment [2] (setting [18]) was 229 ± 69.8 nM.

`CC(=O)N1CCCC(c2ccc3[nH]c(C(=O)Nc4cc(F)cc(F)c4)cc3c2)C1` (stereo not drawn) [RO5254601]: the “Competition” value in [1] is “competed with presenilin binding of RO6874585”. This compound displayed an IC50 in [2] of 63.3 ± 24.1 nM. Further, in [3] (dose–response), the Aβ37 production result was “increased Aβ37”, the Aβ38 production result is recorded as “increased the production of Aβ38” and the Aβ40 production result is listed as “largely unaffected”. In [4], the “Aβ40 (gel)” value was “little effect on Aβ40”. Further, the “Effect on Aβ species profile” value in experiment [5] was “primarily acted on Aβ42 and Aβ38”. Also, the “Total Aβ levels” value in experiment [6] is “without affecting total Aβ levels”. In addition, in [7], the “Combined pathogenic species (Aβ42 + Aβ43)” value is given as “lower the ratio of combined pathogenic species” and the “Secreted Aβ43” value is reported as “could not lower Aβ43”. In addition, the “Notch1 cleavage / NICD release” value in [8] is on record as “did not impair Notch1 cleavage”. Moreover, the “Long species (Aβ42 + Aβ43), overall fraction / sum” value in experiment [9] (RO5254601 2.5 µM) is “not reduced; also recorded: barely reduced the sum of long Aβ42 and Aβ43 species”. Besides, in experiment [10], the “Secreted Aβ42” value was “reduced only Aβ42” and the “Secreted Aβ43” value is recorded as “had no effect on Aβ43”. The “Aβ42 (gel)” value in experiment [11] (RO5254601 2.5 µM) was “markedly lowering Aβ42”. Also, in experiment [12], the “Aβ40 (gel)” value is “little effect on Aβ40”.

With `Cc1nsc(N2CC3CCC(C2)C3Nc2nc3c(-c4ccc(F)c(F)c4F)cccn3n2)n1` (stereo not drawn) [RO7019009], the “Competition” value in experiment [1] is “differential competition for NTF and CTF binding”. For the same compound, the concentration for half-maximal inhibition (IC50) in [13] is ≥ 2 nM; in experiment [2], 3.76 ± 0.6 nM; in experiment [15], ~14 nM and 14 nM. The “Secreted Aβ38” value in experiment [14] (24 h, BPN-15606 360 nM) is given as “strongly increased Aβ38”. Besides, the “Aβ40 (gel)” value in experiment [4] and in experiment [12] was “strong reduction of Aβ40” in each case. Besides, the “Short species Aβ37 and Aβ38 (gel)” value in [4] is “increase of both short species, Aβ37 and Aβ38”; in [12] (heterozygous KI MEF) it was “increase of both short species, Aβ37 and Aβ38”. Also, the “Effect on Aβ species profile” value in [5] is “reduced Aβ40 and Aβ42 while increasing both shorter species Aβ37 and Aβ38”; in experiment [9] (RO7019009 500 nM or 2.5 µM), “efficiently reduced not only Aβ40 but also Aβ43 and, especially at higher concentrations, Aβ42”. The “Total Aβ levels” value in [6] was “without affecting total Aβ levels”. Also, the “Combined pathogenic species (Aβ42 + Aβ43)” value in experiment [7] is “effective lowering of the generation of total pathogenic Aβ42/43 species”. Also, the “Secreted Aβ43” value is “only potently effective compound in lowering Aβ43” in [7]; “reduced both Aβ42 and Aβ43” in experiment [10]. For the same compound, the “Secreted Aβ42” value in [10] is “reduced both Aβ42 and Aβ43”. Also, in experiment [11] (RO7019009 500 nM), the “Aβ38 (gel)” value is given as “increased generation of Aβ38”. Also, the “Processivity: ratio of shorter Aβ37/38 combined with Aβ40 to longer Aβ42/43 species” value in [11] (RO7019009 500 nM) is reported as “increased processivity”; in [12] (heterozygous KI MEF, RO7019009 500 nM), “increased processivity”.

In the case of `COc1nc(-c2cc(C)c(N[C@@H](C)c3ccc(F)cc3)nn2)ccc1-n1cnc(C)c1` [BPN-15606, reference compound], the IC50 in experiment [2] was 16.9 ± 8.22 nM; in experiment [3] (IC50 (Aβ42), 16–18 h, MSD sandwich immunoassay, this study), ~12 nM and 12 nM. In addition, in experiment [14] (24 h, BPN-15606 360 nM), the “Secreted Aβ42” value is “reduced Aβ42 levels”. The “Secreted Aβ38” value in experiment [14] (24 h, BPN-15606 360 nM) is “increase of Aβ38”. For the same compound, the “Aβ40 (gel)” value in [4] and in experiment [12] was “strong reduction of Aβ40” each time. Further, the “Short species Aβ37 and Aβ38 (gel)” value in experiment [4] was “increase of both short species, Aβ37 and Aβ38”. In addition, the “Aβ43 (gel)” value in experiment [11] (BPN-15606 500 nM) is “strong reduction of Aβ43”.

Regarding `CC(C)CCC(c1ccc(Cl)cc1)N1CCC(CC(=O)O)CC1c1ccc(C(F)(F)F)cc1` (stereo not drawn) [GSM-1, reference compound], the “Competition” value in experiment [1] is recorded as “did not or only weakly compete binding”. For the same compound, the “Aβ38 level in treated cells, % of total Aβ” value in experiment [7] is listed as 30–60%.

Take `COc1cc(Nc2nc(Cc3ccc(Cl)cc3)cc(C(C)(C)O)n2)ccc1-n1cnc(C)c1` [RO-02, reference compound]: the “Competition” value in experiment [1] was “did not or only weakly compete binding”. Moreover, the IC50 is 20.5 ± 4.38 nM in experiment [2]; ~15 nM and 15 nM in experiment [15]. The “Aβ38 level in treated cells, % of total Aβ” value is given as 30–60% in experiment [14] (GSM-1 2.5 µM, RO-02 500 nM, one range given for both compounds and both 'other genotypes'); 6–8% in experiment [16]; 30–60% in experiment [7]. For the same compound, the “Aβ40 (gel)” value in [4] and in experiment [12] was “strong reduction of Aβ40” throughout. Besides, the “Short species Aβ37 and Aβ38 (gel)” value in experiment [4] was “increase of both short species, Aβ37 and Aβ38”; in [12] (heterozygous KI MEF) it was “increase of both short species, Aβ37 and Aβ38”.

On to `C[C@H](NC(=O)Cc1cc(F)cc(F)c1)C(=O)N[C@@H]1C(=O)N(C)c2ccccc2-c2ccccc21` [DBZ, dibenzazepine, reference compound], for which the IC50 in experiment [2] (setting [18]) stood at 0.33 ± 0.01 nM. Besides, the “Notch1 cleavage / NICD release” value in experiment [8] is “reduced the levels of the Notch1 intracellular domain”.

Consider `O=C(CCCC[C@@H]1SC[C@@H]2NC(=O)N[C@@H]21)NCCOCCOCCOCCNC(=O)COc1ccc(C(=O)c2ccc(OCC(=O)N3CC[C@@H](Oc4ccc5[nH]c(C(=O)Nc6ccc(F)c(F)c6)cc5c4)C3)cc2)cc1` [RO6874585], for which, in experiment [1] (UV crosslinking, streptavidin pull-down, immunoblot), the “Proteins labeled by photoaffinity probe” value was “PS1 and PS2 NTF and CTF as specific targets”. Further, the “Photoaffinity labeling of PS1 L166P versus WT” value in experiment [17] is on record as “without apparent differences to the WT”. The “Aβ42 lowering” value in experiment [2] (H4/sw cells) is listed as “lowering Aβ42”. For the same compound, in experiment [2] (setting [18]), the half-maximal inhibitory concentration (IC50) was 128 ± 44.7 nM. The “Notch1 cleavage / NICD release” value in [8] is reported as “without inhibiting Notch1 processing”.
